Measured values from patent publication US11447566B2, “Anti-tissue factor antibodies, antibody-drug conjugates, and related methods” (Iconic Therapeutics, Inc., priority 2018, dated 2022).
Square brackets hold non-standard residues; d marks the D form. Peptide text beside a SMILES is read from it. * marks the point of attachment. Dolaproine = CO[C@@H]([C@@H]1CCCN1)[C@@H](C)C(=O)O; Dil = CC[C@H](C)[C@H](NC)[C@@H](CC(=O)O)OC; X1 = C[C@@H](N*)[C@@H](O)c1ccccc1; NMeV = CN[C@H](C(=O)O)C(C)C

What was measured:
[1] = test system: gastric adenocarcinoma PDX; test: Gastric adenocarcinoma patient-derived xenograft model; format: in vivo, athymic nude mice; conditions: end of the study (day 46)
Description: TF-positive PDX models were performed in athymic nude mice (Envigo, Indianapolis, Ind.) to evaluate the efficacy of the ADCs in vivo. The animals' care was in accordance with institutional guidelines. Study animals were implanted unilaterally on the left flank with tumor fragments.
Animals were removed from study and euthanized once tumor size reached 1200 mm^3 or skin ulceration was evident. In addition, the MTV curve for the treatment group in question was no longer shown once an animal was removed from study due to size. TGI and statistical analyses were conducted in the same manner as for the CDX studies.

HUVECs = test: G2/M arrest (phospho-Histone H3), HUVECs; format: cell-based, human; conditions: 24 h treatment, with or without inflammatory cytokines
Description: (§1) To further understand the resistance of endothelial cells to anti-TF ADCs, cell cycle progression was evaluated 24 h after addition of the cytokines and TF-specific ADCs. Arrest at the G2/M phase of the cell cycle was analyzed as previously described in Theunissen et al, Methods Enzymol, 2006, 409:251-284. Briefly, low-passage HUVECs (Lifeline Cell Technologies, Frederick, Md., USA), propagated in VascuLife VEGF-Mv Endothelial media (Lifeline Cell Technologies), and HCT-116 cells were seeded on 12-well plates. The next day, media was removed and replaced with fresh media (no cytokines) or media containing 5 ng/mL IL1-beta, 25 ng/mL TNF-alpha and 50 ng/mL VEGF (with cytokines). A titration of MMAE-linked ADCs or free MMAE was added to the cells. After 24 h of treatment, cells were fixed in ice-cold 70% ethanol. Subsequently, the cells were washed with flow cytometry buffer (PBS, 1% FBS, 0.1% Triton) and stained for 1 h with a 1:100 dilution of phospho-Histone H3 (Ser10) (D2C8 PE Conjugate, Cell Signaling Technology). After 2 washes, the cells were treated for 20 min with 100 μg/mL PureLink RNAse A (ThermoFisher Scientific), followed by the addition of the viability dye TO-PRO-3 Iodide (ThermoFisher Scientific). 40,000 events were collected on a Novocyte flow cytometer. In the Flowjo data analysis software cell doublets and aneuploid cells were excluded. […]

HCT-116 cells = test: G2/M arrest (phospho-Histone H3), HCT-116 cells; format: cell-based, human; conditions: 24 h treatment
Description: as §1

[2] = test system: human thrombin generation (relipidated TF, normal pooled plasma); test: Thrombin generation assay (TGA); format: biochemical; conditions: 100 nM antibody, Example 18
Description: (§2) The TGA assay was performed using the calibrated-automated-thrombogram (CAT) instrument manufactured and distributed by STAGO. The test method design was equivalent to a standard CAT assay measurement, except that the plasma source was NPP in citrate/CTI. […] Relipidated TF was added to a 96-well assay plate, followed by addition of the antibody/NPP mixture. After a 10-min incubation or directly after combining the relipidated TF with antibody/NPP, thrombin generation was initiated by the addition of calcium and the thrombin substrate. The STAGO software was used to report the following parameters: Peak IIa (highest thrombin concentration generated [nM]); Lag Time (time to IIa generation [min]); ETP (endogenous thrombin potential, area under the curve [nM×min]); and ttPeak (time to Peak IIa [min]).
as §2, with “was normal pooled plasma (NPP)” for “was NPP”, “in citrate supplemented with corn trypsin inhibitor (citrate/CTI).” for “in citrate/CTI.”
TGA assay was performed using the calibrated-automated-thrombogram (CAT) instrument manufactured and distributed by STAGO (Diagnostica Stago SAS, Asnieres sur Seine, France). […] The anti-TF antibodies were titrated at 0, 10, 50 and 100 nM and mixed with NPP in citrate/CTI. Relipidated TF was added to a 96-well assay plate, followed by addition of the antibody/NPP mixture. After a 10-min incubation or directly after combining the relipidated TF with antibody/NPP, thrombin generation was initiated by the addition of calcium and the thrombin substrate. The STAGO software was used to report the following parameters: Peak IIa (highest thrombin concentration generated on the thrombin generation curve [nM]); Lag Time (time from assay start to the moment 10 nM of thrombin is formed [min]); ETP (endogenous thrombin potential, area under the curve [nM×min]); and ttPeak (time from assay start to Peak IIa [min]). […] As used herein, the term “thrombin generation assay” (TGA) refers to the TGA used in this example.

TF-011 ADC
complete responders [1]: 1 animals | tumor-free survivors [1]: 5 animals

CC[C@H](C)[C@@H]([C@@H](CC(=O)N1CCC[C@H]1[C@H](OC)[C@@H](C)C(=O)N[C@H](C)[C@@H](O)c1ccccc1)OC)N(C)C(=O)[C@@H](NC(=O)[C@@H](NC)C(C)C)C(C)C [MMAE, monomethyl auristatin E] (H-[NMeV]V[Dil][Dolaproine]-X1)
G2/M arrest, pH3-positive HUVECs (HUVECs): increase the phosphorylation of histone H3 to a similar extent | G2/M arrest, pH3-positive HCT-116 cells (HCT-116 cells): increase the phosphorylation of histone H3 to a similar extent

10H10: previously described TF-specific antibody (Versteeg et al., 2008; Teplyakov et al., 2017) [reference compound]
reduction of the peak IIa concentration ([2]; 10 min antibody pre-incubation): 48% | reduction of the peak IIa concentration ([2]; without antibody pre-incubation): 34%
